Assay results from the supplement of paper PMC8837787.

System: Saccharomyces cerevisiae ABC16-Green Monster
Test: growth inhibition at single dose (up to 150 µM), below the 70% cut-off for dose-response; higher = more potent
Conditions: 18 h; 30 °C; YPD
Procedure, shortened: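 Data are given as percent growth inhibition. Log-phase drug-sensitive S. cerevisiae ABC16-Green Monster cells (OD600 0.1–0.2, 200 µl per well in 96-well plates) were treated in biological duplicates with each library compound at a single 150 µM dose, with untreated cultures alongside, and OD600 was measured at 0 h and after 18 h at 30 °C. Compounds falling below 70% in both replicates were not taken to dose-response.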

Row | Structure (SMILES) | growth inhibition at single dose [%]
1 | Cc1ccc(S(=O)(=O)N2CCN(C(=O)c3cc(-c4ccccc4)[nH]n3)CC2)cc1 | < 70
2 | COc1ccc(CCN2CCC(CN(C)Cc3cnn(-c4ccccc4)c3)CC2)cc1 | < 70
3 | CC1CC(C)CN(C(=O)c2ccc(Cl)cc2Cl)C1 (stereo unspecified) | < 70
4 | COc1ccc(C2c3ccc4ccccc4c3Oc3ncn(CCCn4ccnc4)c(=N)c32)cc1OC (stereo unspecified) | < 70
5 | COc1cccc(C(=O)Nc2ccc(-c3nc4ccccc4[nH]3)cc2)c1 | < 70
6 | CCOC(=O)c1c(C)n(-c2ccccc2)c2ccc(OC(=O)c3cc(OC)c(OC)c(OC)c3)cc12 | < 70
7 | Cc1noc(C)c1C(=O)OCC(=O)c1cc(C)n(-c2ccccc2F)c1C | < 70
8 | CC(C)N=c1cc2n(-c3ccc(Cl)cc3)c3ccccc3nc-2cc1Nc1ccc(Cl)cc1 | < 70
9 | CCOC(=O)C1=C(C)N=c2sc(=Cc3cc(Cl)ccc3O)c(=O)n2C1c1ccc(OC)cc1 (stereo unspecified) | < 70
10 | COc1ccc2c(c1)CCCC21NC(=O)N(Cc2cc(=O)n3cc(C)ccc3n2)C1=O (stereo unspecified) | < 70
11 | CC(C(=O)NC(N)=O)N(C)Cc1ccc(OCc2ccc(Cl)cc2)cc1 (stereo unspecified) | < 70
12 | CCOc1ccc(CN2CCN(CC(O)COc3ccc(OCC(O)CN4CCN(Cc5ccc(OCC)cc5)CC4)cc3)CC2)cc1 (stereo unspecified) | < 70
13 | CC(C)(C)c1cnc(NC(=O)c2ccccc2O)s1 | < 70
14 | CCOC(=O)c1c[nH]c2c(C)cc(Cl)cc2c1=O | < 70
15 | Cc1ccsc1C(=O)Nc1ccc(N2CCN(C)CC2)cn1 | < 70
16 | NCC(c1cccs1)S(=O)(=O)c1ccccc1 (stereo unspecified) | < 70
17 | CC(C)(C)OC(=O)N1CCN(c2nccc(-c3ccc(-c4ccc(Cl)cc4)s3)n2)CC1 | < 70
18 | O=C(COc1ccc(Oc2ccccc2)cc1)NCc1cn2ccccc2n1 | < 70
19 | Cc1cc(Cl)c(S(=O)(=O)N2CCCC2)cc1OCC(=O)NC1CCCCC1 | < 70
20 | Cc1ccc(NC(=O)c2cc(S(=O)(=O)NC(C)(C)C)ccc2C)nc1 | < 70
21 | COc1ccccc1OCCCCn1c(C2CC2)nc2ccccc21 | < 70
22 | CCCc1ccc(-c2nc(-c3cccs3)no2)cc1 | < 70
23 | CCCn1c(=N)c(C(=O)NC2CCCCC2)cc2c(=O)n3cccc(C)c3nc21 | < 70

Row | Structure (SMILES) | growth inhibition at single dose [%]
24 | OC(c1cn2cc(-c3ccccc3)nc2s1)(C(F)(F)F)C(F)(F)F | < 70
25 | Cc1sc(NC(=O)c2ccco2)c(C(c2cccnc2)N2CCC(Cc3ccccc3)CC2)c1C (stereo unspecified) | < 70
26 | CNc1nc(-c2[nH]c(C)c(C(=O)OC)c2C)cs1 | < 70
27 | CC(C)NCC(=O)Nc1cccc(C(=O)Nc2cccc(C(F)(F)F)c2)c1 | < 70
28 | O=C(NC(=O)c1csnn1)Nc1cc(C(F)(F)F)cc(C(F)(F)F)c1 | < 70
29 | COc1ccccc1CN1CCN2C(=O)[C@@H](Cc3ccc(O)cc3)NC(=O)[C@H]2C1 | < 70
30 | O=C(Nc1ccc(F)c(Cl)c1)Nc1ccc(Cl)c(Cl)c1 | < 70
31 | O=C(Nc1ncccc1O)c1ccc(N2CCOCC2)nc1 | < 70
32 | O=C(c1ccc(F)cc1)N(CCNc1ccccc1)c1ccccc1 | < 70
33 | CCOC(=O)c1cnc2c(C)cc(C)cc2c1Nc1ccc(OC)c(OC)c1 | < 70
34 | CCc1nc(COC(=O)c2c(C)nsc2NC)cs1 | < 70
35 | O=C(Nc1ccc(CN2CCOCC2)cc1)c1ccc(-c2cc(Cl)ccc2Cl)o1 | < 70
36 | CCCCN(CCCC)c1c(C#N)cc(S(=O)(=O)Nc2ccccc2)cc1C#N | < 70
37 | COc1cc2c(cc1NC(=O)C(C)N1CCC(C(N)=O)CC1)oc1ccccc12 (stereo unspecified) | < 70
38 | N=C(N)N/N=C/c1ccc(Cl)cc1Cl | < 70
39 | CC(C)n1ncc2cc(C(=O)Nc3nc4c(s3)CCCC4)cnc21 | < 70
40 | O=C(Nc1ccc(I)cc1)C1CCN(C(=O)c2ccncc2)CC1 | < 70
41 | Oc1ccccc1CN1CCN(C(c2ccccc2)c2ccccc2)CC1 | < 70
42 | CCCCc1ccc(NC(=O)Nc2ccc(O[C@H]3CCCC[C@@H]3N(C)c3ccccc3)c(F)c2)cc1 | < 70
43 | Cc1ccc(C)c(-c2csc(Nc3ccc(C)c(C)c3)n2)c1 | < 70
44 | O=C(Nc1ccc(-c2nc3cc4ccccc4cc3[nH]2)cc1)c1cccc(Br)c1 | < 70
45 | Cc1ccccc1C(=O)OCC(=O)c1cc(C)n(Cc2ccco2)c1C | < 70
46 | Cc1ccnc2nc(C(=O)Nc3cc(C(F)(F)F)ccc3N3CCCCCC3)nn12 | < 70

Row | Structure (SMILES) | growth inhibition at single dose [%]
47 | CC1CCCCN1C(=O)NCCc1coc(-c2ccc(F)cc2)n1 (stereo unspecified) | < 70
48 | CCOC(=O)C1=C(C)N=c2sc(=Cc3ccccc3O)c(=O)n2C1c1ccc(OC)c2ccccc12 (stereo unspecified) | < 70
49 | COc1ccc2c(c1)C1(Nc3ccccc3-c3nc4ccccc4n31)C(=O)N2 (stereo unspecified) | < 70
50 | COc1cccc(-c2nn(C)c3sc(C(=O)NCCN4CCN(c5ccccc5F)CC4)cc23)c1 | < 70
51 | COc1ccc(C)cc1N1CC(C(=O)Nc2nc3ccccc3[nH]2)CC1=O (stereo unspecified) | < 70
52 | CC(C)NC(=O)N1CCCC(C(=O)Nc2nc3ccccc3[nH]2)C1 (stereo unspecified) | < 70
53 | CCOC(=O)c1sc2ncn(-n3c(C)ccc3C)c(=O)c2c1C | < 70
54 | O=C(Nc1ccccc1-c1nc2c(C(=O)O)cccc2o1)c1ccccc1 | < 70
55 | COc1ccc2nc(C)cc(Nc3cccc(O)c3)c2c1 | < 70
56 | O=C(c1[nH]nc2c1CCCC2)N1CCN(Cc2ccc3c(c2)OCO3)CC1 | < 70
57 | O=S(=O)(c1ccc(Cl)c(N=C2NN=C(c3c[nH]c4ccccc34)CS2)c1)N1CCOCC1 | < 70
58 | O=C(Nc1cc(S(=O)(=O)N2CCCC2)ccc1O)c1sccc1-n1cccc1 | < 70
59 | CCOc1ccc(-n2cc(-c3ccccc3)c3c(SCc4cc(C)ccc4C)ncnc32)cc1 | < 70
60 | Cc1ccc(NC(=O)c2nc[nH]c2C(=O)Nc2nc3ccccc3[nH]2)c(C)c1 | < 70
61 | O=C(c1cc(-c2ccccc2)n[nH]1)N1CCN(S(=O)(=O)c2ccccc2)CC1 | < 70
62 | Cc1cc(C(=O)C(C)Sc2nnnn2C2CC2)c(C)n1-c1ccccc1 (stereo unspecified) | < 70
63 | O=C(Nc1ccc(N2CCNCC2)nc1)c1oc(-c2ccccc2)nc1C(F)(F)F | < 70
64 | CCN(CC)c1cc(C)c2cc(NC(=O)c3cccc(OC)c3)ccc2n1 | < 70
65 | CC(=O)NC(C)CCc1ccc(-c2csc(-c3ccc(NC(=O)C4CC4)cc3)n2)cc1 (stereo unspecified) | < 70
66 | CC(C)Cn1c(N)c(C(=O)CSc2nnc(COc3ccccc3Cl)o2)c(=O)n(C)c1=O | < 70
67 | CNC1C(OC2C(OC3C(O)C(O)C(NC(=N)N)C(O)C3NC(=N)N)OC(C)C2(O)C=O)OC(CO)C(O)C1O (stereo unspecified) | < 70
68 | C[C@H](C(N)=O)N1CCCC[C@H]1c1ccc(OCc2cccc(F)c2)cc1 | < 70
69 | O=C(c1cnc2cc3c(cc2c1)OCCO3)c1cc(F)ccc1O | < 70

Row | Structure (SMILES) | growth inhibition at single dose [%]
70 | Cn1ccnc1Sc1ncnc2sccc12 | < 70
71 | O=C(Nc1nc2ccc(Oc3ccccc3)cc2s1)C1=COCCO1 | < 70
72 | O=C(NC1CCN(Cc2ccccc2)CC1)c1cc2nc(-c3ccc(Cl)s3)cc(C(F)(F)F)n2n1 | < 70
73 | CN(C)c1nc(N)nc(CN(Cc2nc(N)nc(N(C)C)n2)C23CC4CC(CC(C4)C2)C3)n1 | < 70
74 | Nc1ncc(-c2ccc(C(F)(F)F)nc2)cc1-c1ccc(C(F)(F)F)nc1 | < 70
75 | COc1ccc(S(=O)(=O)Nc2ccc(CN3CCN(C(=O)c4cccc(C#N)c4)CC3)cc2)cc1 | < 70
76 | CN1c2ccccc2N(C)C1c1ccc2c(c1)OCO2 | < 70
77 | CN1N=C2c3ccccc3CCC2C1c1ccc(C(F)(F)F)cc1 (stereo unspecified) | < 70
78 | O=C(/C=C/c1ccc([N+](=O)[O-])cc1)NCC(=O)N1CCN(S(=O)(=O)c2ccc(Cl)cc2)CC1 | < 70
79 | OC(CNCc1ccccc1)Cn1c2ccccc2c2ccccc21 (stereo unspecified) | < 70
80 | COc1nc(Nc2ccc(C(C)C)cc2)nc(OC)n1 | < 70
81 | CC(C)(C)c1ccc(C(=O)NCCOc2ccccc2Cl)cc1 | < 70
82 | COc1cc(SC)ccc1C(=O)N1CCCC(C)C1 (stereo unspecified) | < 70
83 | COc1ccc(-c2nonc2NC(=O)c2cccc(Cl)c2)cc1OC | < 70
84 | CC1CC(Nc2ccccc2)c2ccccc2N1S(=O)(=O)c1ccc(Br)cc1 (stereo unspecified) | < 70
85 | CC(=O)c1c[nH]c(C(=O)OCC(=O)NCCc2ccc(C(C)C)cc2)c1 | < 70
86 | O=C(Nc1ncccc1O)c1ccc(-n2cnc3ccccc32)cc1 | < 70
87 | Cc1ccc(-c2cnn3c(N4CCCC4)cc(C)nc23)cc1 | < 70
88 | O=C(C1CCN(c2cc(-n3cccc3)ncn2)CC1)N1CCc2ccccc2C1 | < 70
89 | CCOC(=O)c1c[nH]c2cc(Cl)cc(Cl)c2c1=O | < 70
90 | O=C(Nc1cccc(-c2nc3ccccc3[nH]2)c1)c1cccc(NC(=O)c2ccco2)c1 | < 70
91 | Cc1cc(OCC(=O)Nc2ccc(C(C)C)cc2)n(C)c(=O)c1C#N | < 70
